In article PMC10180197, “Novel Pyrimidine Derivatives as Antioxidant and Anticancer Agents: Design, Synthesis and Molecular Modeling Studies” (Molecules, 2023):

Legend:
[1] = Experimental determination of lipophilicity as RM values (RP-TLC); format: physicochemical; conditions: methanol/water 70/30 v/v, 24 °C, SD < 10%
From the text: Lipophilicity is an important physicochemical parameter of a drug candidate, linking solubility and membrane permeability with the ADMET (absorption, distribution, metabolism, elimination and toxicity) properties and the overall suitability of a molecule. Reversed-phase thin-layer chromatography was the method used to experimentally determine the lipophilic character of the synthesized compounds as RM values (Table 2). Lipophilicity was also theoretically calculated as clog P values using the Bio-Loom program of BioByte Corp (http://www.biobyte.com/, (accessed on 1 March 2023)). An attempt was made to correlate the experimental RM values with the theoretically calculated clog P values (Table 2). […] This disagreement could be attributed to several factors, e.g., different solvation, silanophilic interactions and hydrogen bonding.
Lipophilicity as RM values was determined through reversed-phase TLC (RP-TLC) on silica gel plates impregnated with 5% v/v liquid paraffin in light petroleum ether. Methanol/water mixture (70/30, v/v) was used as mobile phase. Closed chromatography tanks saturated with the mobile phase at 24 °C were used for the development of the plates while the spots were detected under UV light. For the determination of RM values, five individual measurements of Rf values were recorded, and the RM values were derived from the following Equation (1). (1) RM=log1/Rf−1

soybean lipoxygenase = molecular target: T1, soybean lipoxygenase (Glycine max, UniProt P08170); assay: Inhibition of soybean lipoxygenase; format: biochemical; conditions: 100 μM; cells of the mixed column without μM; read-out: LOX % Inhibition 100 μM
T1 construct: purchased Sigma Aldrich- Merck KGaA, Darmstadt, Germany
T1 sequence (P08170 1-839): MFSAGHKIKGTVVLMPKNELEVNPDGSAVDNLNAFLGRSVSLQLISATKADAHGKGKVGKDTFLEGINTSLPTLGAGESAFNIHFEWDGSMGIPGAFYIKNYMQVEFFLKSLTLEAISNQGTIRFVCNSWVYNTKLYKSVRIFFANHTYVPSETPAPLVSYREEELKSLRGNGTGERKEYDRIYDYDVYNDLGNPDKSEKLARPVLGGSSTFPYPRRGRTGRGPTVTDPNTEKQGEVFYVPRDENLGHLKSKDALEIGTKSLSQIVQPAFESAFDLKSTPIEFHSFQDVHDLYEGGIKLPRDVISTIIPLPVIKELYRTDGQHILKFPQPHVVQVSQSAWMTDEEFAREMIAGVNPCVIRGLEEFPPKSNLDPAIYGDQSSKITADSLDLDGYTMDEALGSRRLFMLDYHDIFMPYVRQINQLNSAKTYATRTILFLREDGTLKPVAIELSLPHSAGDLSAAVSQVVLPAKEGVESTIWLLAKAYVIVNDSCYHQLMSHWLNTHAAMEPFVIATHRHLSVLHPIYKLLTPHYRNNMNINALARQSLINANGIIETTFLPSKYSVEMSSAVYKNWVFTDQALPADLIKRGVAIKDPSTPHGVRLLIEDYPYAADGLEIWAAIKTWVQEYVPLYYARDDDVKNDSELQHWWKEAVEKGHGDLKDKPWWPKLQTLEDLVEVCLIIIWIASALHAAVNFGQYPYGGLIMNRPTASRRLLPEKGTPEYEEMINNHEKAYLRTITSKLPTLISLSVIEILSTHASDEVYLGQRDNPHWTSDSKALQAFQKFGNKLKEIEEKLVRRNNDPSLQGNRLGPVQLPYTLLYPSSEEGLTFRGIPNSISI
From the text: Lipoxygenase (LOX) is the key enzyme in the biosynthesis of inflammatory mediators; thus, it is considered a target for inflammatory diseases. Soybean LOX is a plant enzyme that has been used widely as a prototype for studying the functional and structural properties of the homologous family of lipoxygenases, presenting satisfactory homology with the human 5-LOX [42]. Linoleic acid is the most common substrate in plant LOX. […] Lipophilicity is considered one of the most important parameters with regard to LOX inhibitors according to the literature.
In vitro study was performed as reported previously by our group. In this experiment, 10 μL of the tested compound (from the stock solution) were incubated with 100 μL sodium linoleate (diluted in Tris buffer), 200 μL LOX solution (1:9 × 10^−4 w/v in saline) and 690 μL Tris buffer (pH 9.0) at room temperature. The absorbance was measured at 234 nm, where the change of absorbance was recorded due to the formation of 13-hydroperoxy-linoleic acid. […] In order to determine the IC50 values, different concentrations were used.

[2] = Reducing activity of the stable radical DPPH
Procedure: All the synthesized compounds were studied for their ability to interact with the stable free 2,2-diphenyl-1-picrylhydrazyl radical (DPPH) at a concentration of 100 μM after 20 min and 60 min (Table 4). This assay is based on the reduction of DPPH by transferring one electron from the antioxidant.
In vitro study was performed as reported previously by our group. In this experiment, 20 μL of the tested compound (from the stock solution), 980 μL EtOH and 1 mL ethanolic solution of DPPH (100 μM) were added in a testing tube in a final volume of 2 mL. The free radical scavenging ability was evaluated by recording the change of absorbance at 517 nm, produced by the reduction of DPPH, after 20 and 60 min at room temperature.

[3] = MTT cell viability assay, HaCaT; format: cell-based, human; conditions: human, HaCaT cells (epidermal keratinocyte cell line), 100 μΜ
Procedure: The MTT (3-(4,5-dimethylthiazol-2-yl)-2,5-diphenyltetrazolium bromide) assay is a colorimetric method that is used for the evaluation of cell viability. MTT is converted into colored formazan crystals, indicating the activity of mitochondria and therefore the viability of the cells. Unlike dead cells, the metabolic processes of living cells are functional, meaning that the dehydrogenase enzymes are able to reduce the yellow MTT salt solution to purple crystals, at 37 °C. The intensity of the sample’s color, due to the amount of formazan crystals, is proportional to the number of the living cells in it. Additionally, the colored product is dissolved in various solubilizing agents, such as dimethyl sulfoxide (DMSO). The colored products can be quantitatively measured at 450 nm with a plate reader spectrophotometer. In this study, the human epidermal keratinocyte cell line (HaCaT) was treated with different concentrations (100 μM, 50 μM, 10 μM and 1 μM) of the tested compounds and then the viability rates at each effect were calculated.
(§1) Τhe MTT assay was used to evaluate cell viability or cell toxicity, depending on the cell line being tested. The experimental procedure was performed in a 96-well plate, where the cells were seeded and incubated (37 °C, 5% CO2) for 24 h to grow and cover the surface of the wells. Τhe seeding concentrations for the HaCaT and A549 cells were 30 × 10^4 cells/mL and 20 × 10^4 cells/mL, respectively. After the first incubation, the solutions of the compounds (with different concentrations) were added to the adherent cells and incubated for another 24 h. The compounds were tested in triplicate against the control (only cells in medium), the blank (only medium) and the positive/negative control (cells in 100 μM silibinin solution) triplicates. Silibinin, a flavonoid with known anticancer activities, was used as a negative control for the cell viability assay and as positive control for the cytotoxicity testing assay. The light-sensitive MTT-standard solution was prepared by dissolving 1 mg/mL MTT in PBS and then filtrated (in a […] filter (Millipore, Carrigtwohill, Ireland)). On the third day, an appropriate amount of ΜΤΤ solution was added to each well and the plate was incubated for 4 h. During the incubation time, the formazan crystals were formed, which were then dissolved with 100 μL DMSO per well. Finally, the plate was stirred for 30 min, and the optical density (OD) was measured in a plate reader spectrophotometer at 450 nm.

A549 cell line = assay: MTT cytotoxicity assay, A549; format: cell-based, human; conditions: Homo sapiens; A549, 100 μΜ, 24 h; read-out: % Cell Toxicity 100 μΜ
Procedure: The compounds of this study were also tested for their cytotoxic effects against the adenocarcinomic human alveolar basal epithelial cell line (A549) at different concentrations (100 μM, 75 μΜ, 50 μM and 10 μM).
as §1

[4] = Inhibition of AAPH induced linoleic acid peroxidation
Procedure: For the lipid peroxidation study, 2,2′-Azobis(2-methylpropionamidine) dihydrochloride (AAPH) was used as the generator of peroxy radicals and sodium linoleate as the substrate that undergoes peroxidation. The conversion of linoleic acid to 13-hydroperoxy-linoleic acid was recorded at 234 nm. The change of absorbance reflects the possible antioxidant activity of the tested compounds, in comparison with the reference compound, Trolox.
In vitro study was performed as reported previously by our group. AAPH was used as a free radical generator of alkyl peroxyl radicals. For this experimental procedure, 10 μL of the tested compound (from the stock solution), 10 μL sodium linoleate (16 mM), 50 μL AAPH (40 mM) and 930 μL phosphate-buffered solution (pH 7.4) were added in a UV cuvette (1 mL), pre thermostated at 37 °C. The ability of the compounds to prevent the oxidation of linoleic acid from alkyl peroxyl radicals was evaluated by recording the change of absorbance at 234 nm, due to the conversion of linoleic acid to 13-hydroperoxy-linoleic acid. Trolox was used as the reference.

## O=C(/C=C/c1cccs1)c1ccccc1 [Compound 1c, (E)-1-phenyl-3-(thiophen-2-yl)prop-2-en-1-one]
[1]
  RM: −0.52
Soybean lipoxygenase
  inhibition at 100 µM: 6%
other
  melting point: 58 to 60 °C

## CC(Cc1ccc(O)c(O)c1)C(C)Cc1ccc(O)c(O)c1 (centres unmarked) [NDGA, Nordihydroguaretic acid, reference compound]
[2]; 20 min
  RA % 100 μM 20 min: 87 - %
[2]; 60 min
  RA % 100 μM 60 min: 93 - %

## COc1cc(C2Oc3cc([C@H]4Oc5cc(O)cc(O)c5C(=O)[C@@H]4O)ccc3OC2CO)ccc1O (some centres unmarked) [Silibinin, reference compound]
[3]
  viability at 24 h, 100 μM: 14.9%
A549 cell line
  cytotoxicity at 100 µM: 96.4%

## Cc1c(C)c2c(c(C)c1O)CCC(C)(C(=O)O)O2 (centres unmarked) [Trolox, 6-Hydroxy-2,5,7,8-tetramethyl-chroman2-carboxylic acid, reference compound]
[4]
  AAPH % Inhibition 100 μM: - 92%
